{
  "source": "patent US20260209297A1",
  "about": "“ANTIMICROBIAL PEPTIDES AND MODIFICATIONS THEREOF” (priority 2022, published 2026)",
  "data": [
    {"tested_on": "Fusarium graminearum PH-1", "format": "cell-based", "conditions": "F. graminearum PH-1; Example 7", "units": {"MIC against F. graminearum": "µM"}, "values": [
      {"molecule": "PD87.1.1: SEQ ID NO: 560 with N-terminal alanine; Raphanus sativus wild-type defensin, expressed in Pichia pastoris (KLCQRPSGTWSGVCGNNNACKNQCIRLEKARHGSCNYVFPAHKCICYFPC; N-terminal alanine added; listed as Raphanus sativus)", "MIC against F. graminearum": 0.75},
      {"molecule": "PD95.1.1: SEQ ID NO: 598 with N-terminal alanine; Mimulus guttatus wild-type defensin, expressed in Pichia pastoris (RHCESPSHRFKGICVRKSNCAAICQTEGFSSGKCRGFRSRCVCIKHC; N-terminal alanine added; listed as Mimulus guttatus)", "MIC against F. graminearum": 0.75},
      {"molecule": "PD96.1.1: SEQ ID NO: 603 with N-terminal alanine; Thlaspi arvense wild-type defensin, expressed in Pichia pastoris (RMCESKSHEFKGFCTKWRICRDVCITEGFTDGGCHGVLRHCVCKKPCLLSN; N-terminal alanine added; Thlaspi arvense)", "MIC against F. graminearum": 0.75},
      {"molecule": "PD99.1.1: SEQ ID NO: 616 with N-terminal alanine; Theobroma cacao wild-type defensin, expressed in Pichia pastoris (KLCQKRSKTWTGPCIKTKNCDHQCRKWEKAQHGACHWQWPGFACFCYVNC; N-terminal alanine added; Theobroma cacao)", "MIC against F. graminearum": 0.75}
    ]},
    {"tested_on": "Fusarium graminearum PH-1", "format": "cell-based", "conditions": "Fusarium graminearum PH-1; MIC Day 1; 96-well, resazurin viability", "units": {"F. graminearum PH-1 MIC Day 1": "µM"}, "values": [
      {"molecule": "PD82.1.1: SEQ ID NO: 538 with N-terminal alanine; Pinus sylvestris wild-type defensin, expressed in Pichia pastoris (RTCLSKSHRFHGYCVRSSSCKEICQTERFLSGECRHTHLGNRRCFCEKPC; N-terminal alanine added; listed as Pinus sylvestris)", "F. graminearum PH-1 MIC Day 1": 1.5},
      {"molecule": "PD83.1.1: SEQ ID NO: 542 with N-terminal alanine; Eucalyptus grandis wild-type defensin, expressed in Pichia pastoris (RMCESQSHKFHGLCMSDRTCVVVCKEEDFDDGKCRGFRHRCFCRKPC; N-terminal alanine added; listed as Eucalyptus grandis)", "F. graminearum PH-1 MIC Day 1": ">12"},
      {"molecule": "PD84.1.1: SEQ ID NO: 546 with N-terminal alanine; Striga asiatica wild-type defensin, expressed in Pichia pastoris (KICEYKSERFWGVCLSDIKCADVCKDESFESGDCQGLRRRCMCYNHC; N-terminal alanine added; listed as Striga asiatica)", "F. graminearum PH-1 MIC Day 1": ">12"},
      {"molecule": "PD85.1.1: SEQ ID NO: 551 with N-terminal alanine; Panax ginseng wild-type defensin, expressed in Pichia pastoris (KLCEKASLTWSGKCGNTQNCDKQCQNWESAKHGACHKRPTWKCFCYSDC; N-terminal alanine added; Panax ginseng)", "F. graminearum PH-1 MIC Day 1": ">12"},
      {"molecule": "PD86.1.1: SEQ ID NO: 555 with N-terminal alanine; Eryanthe guttata wild-type defensin, expressed in Pichia pastoris (SLCETPSRYFNGICFSRRNCGAICEKEGFSSGRCKAFKCVCGKDC; N-terminal alanine added; listed as Eryanthe guttata)", "F. graminearum PH-1 MIC Day 1": 6},
      {"molecule": "PD87.1.1: SEQ ID NO: 560 with N-terminal alanine; Raphanus sativus wild-type defensin, expressed in Pichia pastoris (KLCQRPSGTWSGVCGNNNACKNQCIRLEKARHGSCNYVFPAHKCICYFPC; N-terminal alanine added; listed as Raphanus sativus)", "F. graminearum PH-1 MIC Day 1": 0.75},
      {"molecule": "PD88.1.1: SEQ ID NO: 565 with N-terminal alanine; Fraxinus excelsior wild-type defensin, expressed in Pichia pastoris (KHCAKLSKGWHGFCAPHKCSRYCIHHEGAYDGACLKHHHSKHIGCYCYYRHC; N-terminal alanine added; Fraxinus excelsior)", "F. graminearum PH-1 MIC Day 1": ">12"},
      {"molecule": "PD89.1.2: SEQ ID NO: 569 with N-terminal alanine; Crambe maritima wild-type defensin, expressed in Pichia pastoris (KLCRKPSGTWSGLCANSDSCRKQCINLEKAKDGSCKYKFPAHKCFCYY; N-terminal alanine added; listed as Crambe maritima)", "F. graminearum PH-1 MIC Day 1": 12},
      {"molecule": "PD92.1.1: SEQ ID NO: 583 with N-terminal alanine; Trifolium pratense wild-type defensin, expressed in Pichia pastoris (RKCESKRRWIYGNCLSDEKCASDCLVKGFLFGKCRGYDNRCYCKKPRC; N-terminal alanine added; Trifolium pratense)", "F. graminearum PH-1 MIC Day 1": 3},
      {"molecule": "PD93.1.1: SEQ ID NO: 588 with N-terminal alanine; Fragaria vesca wild-type defensin, expressed in Pichia pastoris (KICEVPSKTFKGLCVKDRNCVVRCHSEGYGNGKCSHVRRQCMCLKICD; N-terminal alanine added; listed as Fragaria vesca)", "F. graminearum PH-1 MIC Day 1": ">12"},
      {"molecule": "PD94.1.1: SEQ ID NO: 593 with N-terminal alanine; Solanum lycopersicum wild-type defensin, expressed in Pichia pastoris (KLCQYHSETFHGVCVTGNNCNRHCQRENFEGGRCHGIRHYRCVCYRTC; N-terminal alanine added; listed as Solanum lycopersicum)", "F. graminearum PH-1 MIC Day 1": ">12"},
      {"molecule": "PD95.1.1: SEQ ID NO: 598 with N-terminal alanine; Mimulus guttatus wild-type defensin, expressed in Pichia pastoris (RHCESPSHRFKGICVRKSNCAAICQTEGFSSGKCRGFRSRCVCIKHC; N-terminal alanine added; listed as Mimulus guttatus)", "F. graminearum PH-1 MIC Day 1": 0.75},
      {"molecule": "PD96.1.1: SEQ ID NO: 603 with N-terminal alanine; Thlaspi arvense wild-type defensin, expressed in Pichia pastoris (RMCESKSHEFKGFCTKWRICRDVCITEGFTDGGCHGVLRHCVCKKPCLLSN; N-terminal alanine added; Thlaspi arvense)", "F. graminearum PH-1 MIC Day 1": 0.75},
      {"molecule": "PD99.1.1: SEQ ID NO: 616 with N-terminal alanine; Theobroma cacao wild-type defensin, expressed in Pichia pastoris (KLCQKRSKTWTGPCIKTKNCDHQCRKWEKAQHGACHWQWPGFACFCYVNC; N-terminal alanine added; Theobroma cacao)", "F. graminearum PH-1 MIC Day 1": 0.75},
      {"molecule": "PD120.1.1: SEQ ID NO: 706 with N-terminal alanine; Setaria italica wild-type defensin, expressed in Pichia pastoris (DRCETHSRTYKGRCNNHNCWSICITEGNTGGFCKGTLLLKCMCTSEC; N-terminal alanine added; listed as Setaria italica)", "F. graminearum PH-1 MIC Day 1": 12},
      {"molecule": "PD121.1.1: SEQ ID NO: 711 with N-terminal alanine; Setaria italica wild-type defensin, expressed in Pichia pastoris (RHCLSQSHHFKGLCLSSSNCANVCRVERFPDGECQTTAGTRKCFCKRIC; N-terminal alanine added; listed as Setaria italica)", "F. graminearum PH-1 MIC Day 1": 1.5},
      {"molecule": "PD123.1.1: SEQ ID NO: 719 with N-terminal alanine; Striga asiatica wild-type defensin, expressed in Pichia pastoris (RKCESKSQQFKGLCFIKANCAAVCRTEGFHSGHCRGFRRRCYCTKHC; N-terminal alanine added; listed as Striga asiatica)", "F. graminearum PH-1 MIC Day 1": 6},
      {"molecule": "PD124.1.1: SEQ ID NO: 723 with N-terminal alanine; Rubus argutus wild-type defensin, expressed in Pichia pastoris (RICEVPSKTFIGLCFKDTNCIVRCRSEGYGYGKCSHFRRRCRCFKPCP; N-terminal alanine added; listed as Rubus argutus)", "F. graminearum PH-1 MIC Day 1": 2},
      {"molecule": "PD125.1.1: SEQ ID NO: 728 with N-terminal alanine; wild-type defensin-like protein, expressed in Pichia pastoris (VICPLESKRSKTWSGVCAQSKNCDKQCKTWERAKHGACHATYGKVLGVKACMHAGNK; N-terminal alanine added; listed as Prunus armeniaca)", "F. graminearum PH-1 MIC Day 1": 8},
      {"molecule": "PD126.1.1: SEQ ID NO: 730 with N-terminal alanine; wild-type defensin-like protein, expressed in Pichia pastoris (KLCERRSKTWTGWCAKTSHCNKQCKDWERVEHGACHGEFLEKPVSAISNAHCKISF; N-terminal alanine added; listed as Prunus armeniaca)", "F. graminearum PH-1 MIC Day 1": ">12"},
      {"molecule": "PD128.1.1: SEQ ID NO: 734 with N-terminal alanine; wild-type defensin-like protein, expressed in Pichia pastoris (RVCLRRSKTWTGFCGNTRGFDSQCKRWECALHGACHC; N-terminal alanine added; listed as Lepidium sativum)", "F. graminearum PH-1 MIC Day 1": ">12"},
      {"molecule": "PD127.1.1: SEQ ID NO: 732 with N-terminal alanine; wild-type defensin-like protein, expressed in Pichia pastoris (protein, listed as Potentilla micrantha, N-terminal alanine added, wild-type defensin-like protein, expressed in Pichia pastoris) GACPLVQKRSKTWSGFCGSSNNCDKQCRTWEKAKHGACHATGDLKGTPRLKLRSCHARRSKDH", "F. graminearum PH-1 MIC Day 1": ">12"},
      {"molecule": "PD97.1.1: SEQ ID NO: 608 with N-terminal alanine; Rubus chingii wild-type defensin, expressed in Pichia pastoris (protein, listed as Rubus chingii, N-terminal alanine added, Rubus chingii wild-type defensin, expressed in Pichia pastoris) GACPLVSKRSKTWSGFCGSSNNCNKQCRSWESAQHGACHNTYKTVLGVKVISGRACFCYFCKKHT", "F. graminearum PH-1 MIC Day 1": 1.5},
      {"molecule": "PD91.1.1: SEQ ID NO: 578 with N-terminal alanine; Setaria viridis wild-type defensin, expressed in Pichia pastoris (protein, listed as Setaria viridis, N-terminal alanine added, Setaria viridis wild-type defensin, expressed in Pichia pastoris) AYMCTTQNRFFHGRCVNNLNCASSCVHGRLGTGGHCATRKRSAADPGVDIDWVWNRRICVCVFQC", "F. graminearum PH-1 MIC Day 1": ">12"}
    ]}
  ]
}
